Assay [1] has as its target T1, SARS-CoV-2 PLpro (nsp3 1564–1878) (Severe acute respiratory syndrome coronavirus 2, UniProt P0DTD1). Put plainly: biochemical. Also on record: FRET-quenched peptide (Pro3) cleavage by PLpro, 10 min pre-incubation, slope over 20 min, normalised to no-compound control. Conditions: high concentration screen, read-out: % of control remaining.
Assay [2] has as its target T1, SARS-CoV-2 PLpro (nsp3 1564–1878). Put plainly: biochemical. Also on record: FRET-quenched peptide (Pro3) cleavage by PLpro, 10 min pre-incubation, slope over 20 min, normalised to no-compound control. Conditions: low concentration screen, read-out: % of control remaining.

Structures can show the parent of a compound that is named as a salt. Where two headings read alike, the source gives them in different places.

For the compound `NC(=O)c1ccc(I)c([N+](=O)[O-])c1` [Iniparib (BSI-201)], the remaining activity at 3.75 µM in assay [1] (Well no.=5011) amounted to 103%. The remaining activity at 1.25 µM in assay [2] (Well no.=5011) was found to be 103%.
As to `O=c1[nH]cnc2c1ncn2[C@@H]1O[C@H](CO)[C@@H](O)[C@H]1O` [Inosine], the remaining activity at 3.75 µM in assay [1] (Well no.=5250) is 92.9%; in assay [1] (Well no.=6147), 100%; in assay [1] (Well no.=8835) it was 89.2%. The remaining activity at 1.25 µM in assay [2] (Well no.=5250) was determined as 92.9%; in assay [2] (Well no.=6147), 105%; in assay [2] (Well no.=8835), 92.8%.
`O[C@H]1[C@H](O)[C@@H](O)[C@H](O)[C@@H](O)[C@H]1O` [Inositol]: the remaining activity at 3.75 µM in assay [1] (Well no.=5481) came out at 111%. The remaining activity at 1.25 µM in assay [2] (Well no.=5481) was found to be 111%.
Consider `NC(=O)CI` [Iodoacetamide], for which the remaining activity at 3.75 µM in assay [1] (Well no.=430) came to 96.4%. The remaining activity at 1.25 µM in assay [2] (Well no.=430) was determined as 104%.
In the case of `CC(C)NC(C)Cc1ccc(I)cc1` (stereo not shown) [Iofetamine hydrochloride], the remaining activity at 3.75 µM in assay [1] (Well no.=1017) is 105%. Also, in assay [2] (Well no.=1017), the remaining activity at 1.25 µM came out at 100%.
For the compound `CC(C)[N+]1(C)[C@@H]2CC[C@H]1C[C@@H](OC(=O)C(CO)c1ccccc1)C2` (stereo partly shown) [Ipratropium bromide], in assay [1] (Well no.=526), the remaining activity at 3.75 µM was 103%. Moreover, the remaining activity at 1.25 µM in assay [2] (Well no.=526) was found to be 105%.
Take `CC(C)Oc1ccc2c(=O)c(-c3ccccc3)coc2c1` [Ipriflavone]: in assay [1] (Well no.=5242), the remaining activity at 3.75 µM was determined as 97.9%. Further, the remaining activity at 1.25 µM in assay [2] (Well no.=5242) is 95.6%.
For the compound `CC(C)NNC(=O)c1ccncc1` [Iproniazid phosphate], the remaining activity at 3.75 µM in assay [1] (Well no.=775) is 105%. For the same compound, in assay [2] (Well no.=775), the remaining activity at 1.25 µM is 104%.
For `CC(C)NNC(=O)c1ccncc1` [Iproniazid], the remaining activity at 3.75 µM in assay [1] (Well no.=2048) came out at 96.1%. In assay [2] (Well no.=2048), the remaining activity at 1.25 µM was 94.9%.
Consider `CCCCC1=NC2(CCCC2)C(=O)N1Cc1ccc(-c2ccccc2-c2nnn[nH]2)cc1` [Irbesartan], for which the remaining activity at 3.75 µM in assay [1] (Well no.=8251) is 105%. In assay [2] (Well no.=8251), the remaining activity at 1.25 µM stood at 105%.
With `CCc1c2c(nc3ccc(OC(=O)N4CCC(N5CCCCC5)CC4)cc13)-c1cc3c(c(=O)n1C2)COC(=O)[C@]3(O)CC` [Irinotecan], in assay [1] (Well no.=5099), the remaining activity at 3.75 µM came to 98.8%. The remaining activity at 1.25 µM in assay [2] (Well no.=5099) came out at 99.6%.
On to `Nc1nc(N)nc(-c2cc(Cl)ccc2Cl)n1` [Irsogladine], for which the remaining activity at 3.75 µM in assay [1] (Well no.=2148) amounted to 98.3%; in assay [1] (Well no.=7629), 88.4%. The remaining activity at 1.25 µM in assay [2] (Well no.=2148) turned out to be 98.6%; in assay [2] (Well no.=7629) it was 94%.
Regarding `O=C1Nc2ccccc2C1=O` [Isatin], in assay [1] (Well no.=8350), the remaining activity at 3.75 µM turned out to be 95.1%. For the same compound, in assay [2] (Well no.=8350), the remaining activity at 1.25 µM was 95.6%.
Turning to `C#C[C@]1(CO)O[C@@H](n2cnc3c(N)nc(F)nc32)C[C@@H]1O` [Islatravir], the remaining activity at 3.75 µM in assay [1] (Well no.=7822) was determined as 105%. Also, the remaining activity at 1.25 µM in assay [2] (Well no.=7822) was 105%.
Take `C=C1C(=O)O[C@@H]2C[C@@]3(C)CCCC(=C)[C@@H]3C[C@H]12` [Isoalantolactone]: the remaining activity at 3.75 µM in assay [1] (Well no.=6728) worked out at 93.6%. For the same compound, the remaining activity at 1.25 µM in assay [2] (Well no.=6728) was 97.1%.
Regarding `CC(C)=CCc1c(O)ccc(C(=O)/C=C/c2ccc(O)cc2)c1O` [Isobavachalcone], the remaining activity at 3.75 µM in assay [1] (Well no.=6538) is 97.1%. Further, the remaining activity at 1.25 µM in assay [2] (Well no.=6538) came to 102%.
For `O=C1NC(=O)c2c1c1c3ccccc3[nH]c1n1cncc21` [Isogranulatimide], in assay [1] (Well no.=2504), the remaining activity at 3.75 µM was determined as 90.7%. For the same compound, the remaining activity at 1.25 µM in assay [2] (Well no.=2504) came to 94.2%.
For the compound `O=C(O)C1=CCNCC1` [Isoguvacine hydrochloride], in assay [1] (Well no.=412), the remaining activity at 3.75 µM worked out at 91.8%. The remaining activity at 1.25 µM in assay [2] (Well no.=412) was 94.2%.
Take `O=C(/C=C/c1ccc(O)cc1)c1ccc(O)cc1O` [Isoliquiritigenin]: the remaining activity at 3.75 µM in assay [1] (Well no.=963) was determined as 101%. In assay [2] (Well no.=963), the remaining activity at 1.25 µM was found to be 99.7%.
As for `NNC(=O)c1ccncc1` [Isoniazid], the remaining activity at 3.75 µM in assay [1] (Well no.=1744) was found to be 103%. In assay [2] (Well no.=1744), the remaining activity at 1.25 µM is 101%.
Take `O=C(O)C1CCNCC1` [Isonipecotic acid]: the remaining activity at 3.75 µM in assay [1] (Well no.=1067) was 96.7%. The remaining activity at 1.25 µM in assay [2] (Well no.=1067) was 92.8%.
Consider `C=C[C@@]1(C)CC[C@H]2C(=CC[C@@H]3[C@]2(C)CCC[C@@]3(C)C(=O)O)C1` [Isopimaric Acid], for which the remaining activity at 3.75 µM in assay [1] (Well no.=5672) is 93.1%. Besides, the remaining activity at 1.25 µM in assay [2] (Well no.=5672) came out at 94.1%.
Turning to `CC(C)NCC(O)c1ccc(O)c(O)c1` (stereo not shown) [Isoprenaline (hydrochloride)], the remaining activity at 3.75 µM in assay [1] (Well no.=6761) was found to be 101%. Further, the remaining activity at 1.25 µM in assay [2] (Well no.=6761) was found to be 99.4%.
For `COc1cc(-c2oc3cc(O)cc(O)c3c(=O)c2O)ccc1O` [Isorhamnetine], the remaining activity at 3.75 µM in assay [1] (Well no.=3150) worked out at 99.7%. Further, in assay [2] (Well no.=3150), the remaining activity at 1.25 µM stood at 99.4%.
Take `C[C@@H]1O[C@@H](OC[C@H]2O[C@@H](Oc3cc(O)c4c(=O)cc(-c5ccc(O)cc5)oc4c3)[C@H](O)[C@@H](O)[C@@H]2O)[C@H](O)[C@H](O)[C@H]1O` [Isorhoifolin]: the remaining activity at 3.75 µM in assay [1] (Well no.=3297) turned out to be 104%. The remaining activity at 1.25 µM in assay [2] (Well no.=3297) is 99.4%.
Consider `COc1ccc2cc1Oc1ccc(cc1)C[C@H]1c3cc(c(OC)cc3CCN1C)Oc1c(OC)c(OC)cc3c1[C@@H](C2)N(C)CC3` [Isotetrandrine], for which, in assay [1] (Well no.=3365), the remaining activity at 3.75 µM came to 98.1%. Also, the remaining activity at 1.25 µM in assay [2] (Well no.=3365) was 100%.
On to `CCC(NC(C)C)C(O)c1ccc(O)c(O)c1` (stereo not shown) [Isotharine mesylate], for which the remaining activity at 3.75 µM in assay [1] (Well no.=915) was 104%. Further, the remaining activity at 1.25 µM in assay [2] (Well no.=915) was found to be 104%.
Take `CC1=C(/C=C/C(C)=C/C=C/C(C)=C\C(=O)O)C(C)(C)CCC1` [Isotretinoin]: the remaining activity at 3.75 µM in assay [1] (Well no.=6303) is 108%. Besides, in assay [2] (Well no.=6303), the remaining activity at 1.25 µM was 108%.
Take `CC(C)CC(N)=O` [Isovaleramide]: in assay [1] (Well no.=8346), the remaining activity at 3.75 µM was found to be 81.6%. The remaining activity at 1.25 µM in assay [2] (Well no.=8346) was 89.1%.
Turning to `O=c1cc(-c2ccc(O)cc2)oc2cc(O)c([C@@H]3O[C@H](CO)[C@@H](O)[C@H](O)[C@H]3O)c(O)c12` [Isovitexin], the remaining activity at 3.75 µM in assay [1] (Well no.=3301) is 98.6%. In assay [2] (Well no.=3301), the remaining activity at 1.25 µM worked out at 99.2%.
For `Nc1nc2[nH]c(=O)cnc2c(=O)[nH]1` [Isoxanthopterin], the remaining activity at 3.75 µM in assay [1] (Well no.=1109) stood at 100%. The remaining activity at 1.25 µM in assay [2] (Well no.=1109) is 96.8%.
`Cc1ccc(C(=O)N(CCCN)[C@@H](c2nc3cc(Cl)ccc3c(=O)n2Cc2ccccc2)C(C)C)cc1` [Ispinesib (SB-715992)]: the remaining activity at 3.75 µM in assay [1] (Well no.=5243) worked out at 92.3%. For the same compound, in assay [2] (Well no.=5243), the remaining activity at 1.25 µM came to 94.6%.

For the origin of these results see PMC8286840, “Identifying SARS-CoV-2 antiviral compounds by screening for small molecule inhibitors of Nsp3 papain-like protease” (Biochemical Journal, 2021).
